5 compounds from ChEMBL document CHEMBL5370598, “[3H]UR-JG102-A Radiolabeled Cyclic Peptide with High Affinity and Excellent Selectivity for the Neuropeptide Y Y4 Receptor” (J Med Chem, 2023) can be followed below.

Starred links: 1 amine or outer side, 2 acyl side, 3 side chain; linkers in the order of their positions; H or OH if unused. Positions of bridges follow the written chain, without caps; N, C: chain ends. Non-standard residues stand in square brackets, D forms with d. Residues, ends and D or L forms follow the SMILES beside them. Arg(Nω-CO) = N/C(=N\C(=O)[*:3])NCCC[C@H](N[*:1])C(=O)[*:2]; Ethylenediamine = C(CN[*:2])N[*:1]

The target in test [1] is T1, Neuropeptide Y receptor type 4 (Homo sapiens, UniProt P50391). Put plainly: Agonist activity at human Y4R expressed in HEK293T cells by miniGsi assay. The class given is functional, cell-based.
Test [2] deals with T2, Neuropeptide Y receptor type 1 (Homo sapiens, UniProt P25929).
T2 sequence (P25929 whole entry): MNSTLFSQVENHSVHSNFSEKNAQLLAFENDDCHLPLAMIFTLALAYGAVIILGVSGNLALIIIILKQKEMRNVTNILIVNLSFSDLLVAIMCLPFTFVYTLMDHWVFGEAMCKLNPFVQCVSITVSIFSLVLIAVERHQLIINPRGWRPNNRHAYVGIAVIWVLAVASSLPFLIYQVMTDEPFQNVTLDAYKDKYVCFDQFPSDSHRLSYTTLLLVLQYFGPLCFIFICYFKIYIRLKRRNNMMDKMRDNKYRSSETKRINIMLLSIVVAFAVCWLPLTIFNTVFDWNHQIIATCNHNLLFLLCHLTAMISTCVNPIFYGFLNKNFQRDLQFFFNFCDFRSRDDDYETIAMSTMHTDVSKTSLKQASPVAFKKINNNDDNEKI
Put plainly: Displacement of [3H]UR-MK299 from human Y1R expressed in SK-N-MC cells. The class given is cell-based. In general terms: In a radioligand displacement assay an active substance lowers the binding of a labelled ligand.

In test [3] the target is T3, Neuropeptide Y receptor type 2 (Homo sapiens, UniProt P49146).
T3 sequence (P49146 whole entry): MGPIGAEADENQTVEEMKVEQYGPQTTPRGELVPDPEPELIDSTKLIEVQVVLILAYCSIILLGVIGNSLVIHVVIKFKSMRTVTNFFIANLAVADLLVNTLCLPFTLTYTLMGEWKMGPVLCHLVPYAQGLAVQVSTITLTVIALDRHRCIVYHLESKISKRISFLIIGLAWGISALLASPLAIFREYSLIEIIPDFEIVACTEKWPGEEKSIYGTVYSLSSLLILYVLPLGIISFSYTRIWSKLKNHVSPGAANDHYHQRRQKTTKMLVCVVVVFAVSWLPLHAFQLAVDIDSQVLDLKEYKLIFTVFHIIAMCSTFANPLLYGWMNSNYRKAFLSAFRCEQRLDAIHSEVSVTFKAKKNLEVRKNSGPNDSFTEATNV
As to the kind of experiment: Displacement of [3H]propionyl-pNPY from human Y2R expressed in CHO cells. The class given is cell-based.

For test [4], the target named is T1, Neuropeptide Y receptor type 4. As to the kind of experiment: Agonist activity at human Y4R expressed in HEK293T cells by miniGsi assay relative to control. Type of test: functional, cell-based. The following applies: filed as agonist.
For test [5] the target is unchanged. As to the kind of experiment: Agonist activity at human Y4R expressed in CHO cells co-expressing Gqi5-mtAEQ by calcium2+ aequorin assay relative to control. Type of test: functional, cell-based. The following applies: filed as agonist.
Test [6] shares this target. Put plainly: Displacement of [3H]UR-KK200 from human Y4R expressed in CHO cells co-expressing Gqi5-mtAEQ. The class given is cell-based.
Test [7] has the same target. Put plainly: Agonist activity at human Y4R expressed in CHO cells co-expressing Gqi5-mtAEQ by calcium2+ aequorin assay. The class given is functional, cell-based.
The target of test [8] is T4, Neuropeptide Y receptor type 5 (Homo sapiens, UniProt Q15761).
T4 sequence (Q15761 whole entry): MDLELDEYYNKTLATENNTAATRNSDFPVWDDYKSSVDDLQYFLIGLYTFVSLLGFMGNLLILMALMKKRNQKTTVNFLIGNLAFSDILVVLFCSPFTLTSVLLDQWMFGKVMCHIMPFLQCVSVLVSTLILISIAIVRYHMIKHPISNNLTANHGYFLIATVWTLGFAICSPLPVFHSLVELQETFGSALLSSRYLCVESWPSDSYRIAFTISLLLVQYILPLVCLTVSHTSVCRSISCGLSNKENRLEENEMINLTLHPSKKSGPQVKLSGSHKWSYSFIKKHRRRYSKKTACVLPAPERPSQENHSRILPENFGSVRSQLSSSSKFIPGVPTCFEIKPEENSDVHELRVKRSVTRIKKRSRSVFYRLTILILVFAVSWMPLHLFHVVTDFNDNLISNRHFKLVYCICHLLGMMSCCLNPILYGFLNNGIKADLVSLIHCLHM
As to the kind of experiment: Displacement of [3H]propionyl-pNPY from human Y5R expressed in HEC-1B cells. The class given is cell-based, HEC-1B cell line.

T1 sequence (P50391 whole entry): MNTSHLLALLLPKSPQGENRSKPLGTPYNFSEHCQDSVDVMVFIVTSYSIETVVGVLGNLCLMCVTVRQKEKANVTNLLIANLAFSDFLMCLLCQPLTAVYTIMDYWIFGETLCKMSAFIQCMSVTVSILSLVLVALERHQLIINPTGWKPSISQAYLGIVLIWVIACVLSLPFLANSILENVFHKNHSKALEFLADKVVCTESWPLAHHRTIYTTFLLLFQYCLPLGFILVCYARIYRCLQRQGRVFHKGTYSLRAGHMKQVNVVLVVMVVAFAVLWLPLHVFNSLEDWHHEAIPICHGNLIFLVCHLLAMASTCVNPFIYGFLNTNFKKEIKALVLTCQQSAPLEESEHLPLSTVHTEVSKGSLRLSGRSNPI

Take `CC(C)C[C@H](NC(=O)[C@@H]1CCCN/C(N)=N/C(=O)NCCCCNC(=O)[C@H](N)CC(=O)N[C@@H](CCCNC(=N)N)C(=O)N[C@@H](Cc2ccc(O)cc2)C(=O)N1)C(=O)N[C@@H](CCCNC(=N)N)C(=O)N[C@@H](Cc1ccc(O)cc1)C(N)=O`: the EC50 amounted to 1.1 nM in test [1] and 8 nM in test [7] (read-out: EC50). Also, the Ki in test [2] (read-out: pKi (converted)) was over 1000 nM; in test [2] (sk-n-mc, read-out: Ki), over 1000 nM; in test [3] (cho, read-out: Ki), over 10000 nM; in test [3] (read-out: pKi (converted)), over 10000 nM; in test [6] (read-out: Ki) it was 0.041 nM; in test [8] (hec-1b cell line, read-out: Ki), over 1000 nM. Further, the Ki in test [8] (read-out: pKi (converted)) is over 1000 nM. Besides, the results for the maximum response (Emax) in test [4] and in test [5] were 56% and 79%, respectively.

For `CC(C)C[C@H](NC(=O)[C@@H]1CCCN/C(N)=N/C(=O)NCCCCNC(=O)[C@H](NC(=O)CCCN)CC(=O)N[C@@H](CCCNC(=N)N)C(=O)N[C@@H](Cc2ccc(O)cc2)C(=O)N1)C(=O)N[C@@H](CCCNC(=N)N)C(=O)N[C@@H](Cc1ccc(O)cc1)C(N)=O`, the figures for the EC50 in test [1] and in test [7] (read-out: EC50) were 2.5 nM and 18 nM, respectively. For the same compound, the Ki was over 1000 nM in test [2] (read-out: pKi (converted)); over 1000 nM in test [2] (sk-n-mc, read-out: Ki); over 948 nM in test [3] (read-out: Ki); 912 nM in test [3] (read-out: pKi (converted)); 0.093 nM in test [6] (read-out: Ki); 0.0912 nM in test [6] (read-out: pKi (converted)). For the same compound, the Ki was over 1000 nM in test [8] (hec-1b cell line, read-out: Ki) and over 1000 nM in test [8] (read-out: pKi (converted)). The Emax was determined as 62% in test [4] and 69% in test [5].

In the case of `CC(C)C[C@H](NC(=O)[C@@H]1CCCN/C(N)=N/C(=O)NCCCCNC(=O)C[C@H](N)C(=O)N[C@@H](CCCNC(=N)N)C(=O)N[C@@H](Cc2ccc(O)cc2)C(=O)N1)C(=O)N[C@@H](CCCNC(=N)N)C(=O)N[C@@H](Cc1ccc(O)cc1)C(N)=O`, the results for the EC50 in test [1], in test [7] (read-out: EC50) and in test [7] (read-out: pEC50 (converted)) were 4.7 nM, 19 nM and 13.2 nM, respectively. Moreover, the Ki in test [2] (read-out: Ki) is over 3000 nM; in test [2] (read-out: pKi (converted)), over 3160 nM; in test [3] (cho, read-out: Ki) it was over 10000 nM; in test [3] (read-out: pKi (converted)) it was over 10000 nM; in test [6] (read-out: Ki), 0.33 nM; in test [8] (hec-1b cell line, read-out: Ki) it was over 1000 nM. Further, in test [8] (read-out: pKi (converted)), the Ki is over 1000 nM. Also, the maximal response (Emax) in test [4] was determined as 55%; in test [5] it was 70%.

As for `CC(C)C[C@H](NC(=O)[C@@H]1CCCN/C(N)=N/C(=O)NCCCCNC(=O)[C@@H](N)CC(=O)N[C@@H](CCCNC(=N)N)C(=O)N[C@@H](Cc2ccc(O)cc2)C(=O)N1)C(=O)N[C@@H](CCCNC(=N)N)C(=O)N[C@@H](Cc1ccc(O)cc1)C(N)=O`, the EC50 in test [1] was found to be 1.1 nM; in test [7] (read-out: EC50) it was 5 nM. Also, the Ki in test [2] (read-out: pKi (converted)) was over 1000 nM; in test [2] (sk-n-mc, read-out: Ki), over 1000 nM; in test [3] (cho, read-out: Ki), over 10000 nM; in test [3] (read-out: pKi (converted)), over 10000 nM; in test [6] (read-out: Ki) it was 0.026 nM; in test [6] (read-out: pKi (converted)) it was 0.0245 nM. Also, the Ki in test [8] (hec-1b cell line, read-out: Ki) was over 1000 nM; in test [8] (read-out: pKi (converted)) it was over 1000 nM. The Emax in test [4] amounted to 59%; in test [5], 85%.

Consider `CC(C)C[C@H](NC(=O)[C@@H]1CCCN/C(N)=N/C(=O)NCCNC(=O)CC[C@H](N)C(=O)N[C@@H](CCCNC(=N)N)C(=O)N[C@@H](Cc2ccc(O)cc2)C(=O)N1)C(=O)N[C@@H](CCCNC(=N)N)C(=O)N[C@@H](Cc1ccc(O)cc1)C(N)=O` (H-ERY[Arg(Nω-CO)]LRY-NH2; linker 1-4 via Ethylenediamine), for which the EC50 was determined as 10 nM in test [1] and 60 nM in test [7] (read-out: EC50). The Ki in test [2] (read-out: pKi (converted)) was over 1000 nM; in test [2] (sk-n-mc, read-out: Ki), over 1000 nM; in test [3] (cho, read-out: Ki) it was over 10000 nM; in test [3] (read-out: pKi (converted)), over 10000 nM; in test [6] (read-out: Ki), 0.17 nM; in test [8] (hec-1b cell line, read-out: Ki) it was over 1000 nM. The Ki in test [8] (read-out: pKi (converted)) is over 1000 nM. Further, the values for the Emax in test [4] and in test [5] were 67% and 65%, respectively.

One may read the Emax as the maximal effect, on the per cent scale that the assay sets.
